From patent US7868013B2, “Cycloalkyl substituted pyrimidinediamine compounds and their uses” (Rigel Pharmaceuticals, Inc., priority 2004, dated 2011)
Where a name gives a salt, the structure may show the parent alone. Read-outs that look alike come from different tables or passages of the source.

Assays:
A549 (lung carcinoma) = test: In vitro antiproliferation assay, A549 cells (TABLE 1 6 point assay; TABLE 2); format: cell-based
Description: (§1) Certain compounds were tested against other cell types for their ability to inhibit proliferation in standard antiproliferation assays.

[1] = tested on: H1299 (non-small cell lung carcinoma); test: In vitro antiproliferation assay, H1299 cells (TABLE 1 6 point assay; TABLE 2); format: cell-based
Description: as §1

[2] = Homo sapiens, A549, A549 cells, 6 point assay, read-out: A549, 6pt (IC50, inhibition of proliferation)
[3] = Homo sapiens, NCI-H1299, H1299 cells, 6 point assay, read-out: H1299, 6pt (IC50, inhibition of proliferation)
[4] = Homo sapiens, A549, 6 point assay, A549 cells, read-out: IC50, A549 cells
[5] = Homo sapiens, NCI-H1299, 6 point assay, H1299 cells, read-out: IC50, H1299 cells
[6] = 6 point assay, A549 cells, read-out: IC50, A549 cells
[7] = 6 point assay, H1299 cells, read-out: IC50, H1299 cells

In the case of `CN1CCc2cc(Nc3ncc(F)c(NC4C5C=CC(C5)C4C(N)=O)n3)ccc21` (racemic) [compound 174, Racemic-(2-exo,3-exo)-N4-[3-aminocarbonylbicyclo[2.2.1]hept-5-en-2-yl)-5-fluoro-N2-(1-methy-2,3-dihydrolindol-5-yl)-2,4-pyrimidinediamine], the IC50 (A549 (lung carcinoma); [2]) is reported as 100 to 1000 nM and the IC50 [1, 3] is reported as 100 to 1000 nM.
Molecule `Cc1cc(Nc2ncc(F)c(N[C@H]3C=CC[C@H]3C(N)=O)n2)ccc1N1CCN(C)CC1` (racemic) [Compound 286, Racemic-cis-N4-(2-aminocarbonylcyclopent-4-en-1-yl)-5-fluoro-N2-[3-methyl-4-(4-methylpiperazin-1-yl)phenyl]-2,4-pyrimidinediamine] has an IC50 (A549 (lung carcinoma); [4]) of 100 to 1000 nM and an IC50 [1, 5] of 100 to 1000 nM.
Molecule `CCN1CCN(c2ccc(Nc3ncc(F)c(NC4C5C=CC(C5)C4C(N)=O)n3)cc2C)CC1` (racemic) [compound 241, Racemic-(2-exo,3-exo)-N4-(3-aminocarbonylbicyclo[2.2.1]hept-5-en-2-yl)-N2-[4-(4-ethylpiperazin-1-yl)-3-methylphenyl]-5-fluoro-2,4-pyrimidinediamine] has an IC50 (A549 (lung carcinoma); [4]) of no more than 100 nM and an IC50 [1, 5] of no more than 100 nM.
For `Cc1cc(Nc2ncc(F)c(NC3C4C=CC(C4)C3C(N)=O)n2)ccc1N1CCNCC1` (racemic) [compound 108], the IC50 (A549 (lung carcinoma); [2]) was greater than 10000 nM and the IC50 [1, 3] was 1000 to 10000 nM.
Molecule `Cc1cc(Nc2ncc(F)c(N[C@H]3C=CCC[C@H]3C(N)=O)n2)ccc1N1CCN(C)CC1` (racemic) [compound 227, Racemic-cis-N4-(2-aminocarbonylcyclohex-5-ene-1-yl)-5-fluoro-N2-[3-methyl-4-(4-methylpiperazin-1-yl)phenyl]-2,4-pyrimidinediamine] has an IC50 (A549 (lung carcinoma); [4]) of 1000 to 10000 nM and an IC50 [1, 5] of 1000 to 10000 nM.
For `CN1CCC(Oc2ccc(Nc3ncc(F)c(N[C@H]4[C@@H](C(N)=O)[C@@H]5C=C[C@H]4C5)n3)cc2Cl)CC1` [compound 152, (1R,2R,3S,4S)-N4-(3-Aminocarbonylbicyclo[2.2.1]hept-5-en-2-yl)-N2-[3-chloro-4-(1-methylpiperidin-4-yloxy)phenyl]-5-fluoro-2,4-pyrimidinediamine], the IC50 (A549 (lung carcinoma); [2]) was no more than 100 nM and the IC50 [1, 3] was no more than 100 nM.
Molecule `CN1CCN(C(=O)CCc2ccc(Nc3ncc(F)c(N[C@H]4CCC[C@H]4C(N)=O)n3)cc2)CC1` (racemic) [compound 280, Racemic-cis-N4-(2-aminocarbonylcyclopent-1-yl)-5-fluoro-N2-{4-[(4-methylpiperazin-1-yl)-propan-1-one-3-yl]}phenyl-2,4-pyrimidinediamine] has an IC50 (A549 (lung carcinoma); [4]) of 1000 to 10000 nM and an IC50 [1, 5] of 1000 to 10000 nM.
`Cn1ccc2cc(Nc3ncc(F)c(NC4C5C=CC(C5)C4C(N)=O)n3)ccc21` (racemic) [compound 161, Racemic-(2-exo,3-exo)-N4-[3-aminocarbonylbicyclo[2.2.1]hept-5-ene-2-yl)-5-fluoro-N2-(1-methylindol-5-yl)-2,4-pyrimidinediamine] gave an IC50 (A549 (lung carcinoma); [2]) of 100 to 1000 nM and an IC50 [1, 3] of 100 to 1000 nM.
With `COC(=O)[C@H]1CC[C@@H](Nc2nc(Nc3ccc(N4CCN(C)CC4)c(C)c3)ncc2F)C1` [compound 214, (1R,3S)-N4-(3-Methoxycarbonylcyclopent-1-yl)-5-fluoro-N2-[3-methyl-4-(4-methylpiperazin-1-yl)phenyl]-2,4-pyrimidinediamine] the IC50 (A549 (lung carcinoma); [4]) was 1000 to 10000 nM and the IC50 [1, 5] was 1000 to 10000 nM.
`CS(=O)(=O)N1CCc2cc(Nc3ncc(F)c(N[C@H]4[C@@H](C(N)=O)[C@@H]5C=C[C@H]4C5)n3)ccc21` [compound 188, (1R,2R,3S,4S)-N4-(3-Aminocarbonylbicyclo[2.2.1]hept-5-en-2-yl)-5-fluoro-N2-[1-methylsulfonyl-2,3-dihydro-indol-5-yl]-2,4-pyrimidinediamine] gave an IC50 (A549 (lung carcinoma); [2]) of no more than 100 nM and an IC50 [1, 3] of no more than 100 nM.
`CN(C)CCN1CCc2cc(Nc3ncc(F)c(NC4C5C=CC(C5)C4C(=O)NC4CC4)n3)ccc21` (racemic) [compound 170, Racemic-(2-exo,3-exo)-N4-[3-cyclopropylaminocarbonylbicyclo[2.2.1]hept-5-en-2-yl)-N2-[1-(2-dimethylaminoethyl)-2,3-dihydroindol-5-yl]-5-fluoro-2,4-pyrimidinediamine] was tested, and the IC50 (A549 (lung carcinoma); [2]) was no more than 100 nM and the IC50 [1, 3] was no more than 100 nM.
`Cc1cc(Nc2ncc(F)c(NC3C4C=CC(C4)C3C(N)=O)n2)ccc1N1CCN(C(C)C)CC1` (racemic) [compound 232, Racemic-(2-exo,3-exo)-N4-(3-aminocarbonylbicyclo[2.2.1]hept-5-en-2-yl)-5-fluoro-N2-[4-(4-isopropylpiperazin-1-yl)-3-methylphenyl]-2,4-pyrimidinediamine] was tested, and the IC50 (A549 (lung carcinoma); [4]) was no more than 100 nM and the IC50 [1, 5] was no more than 100 nM.
`CNC(=O)c1cc(Nc2ncc(F)c(NC3C4C=CC(C4)C3C(=O)OC)n2)ccc1N1CCN(C)CC1` (racemic) [compound 254, Racemic-(2-exo,3-exo)-5-fluoro-N4-(3-methoxycarbonylbicyclo [2.2.1]hept-5-en-2-yl)-N2-[3-methylaminocarbonyl-4-(4-methylpiperazin-1-yl)phenyl]-2,4-pyrimidinediamine] gave an IC50 (A549 (lung carcinoma); [4]) of 1000 to 10000 nM and an IC50 [1, 5] of 1000 to 10000 nM.
Molecule `CCS(=O)(=O)N1CCN(c2ccc(Nc3ncc(F)c(N[C@H]4[C@@H](C(N)=O)[C@@H]5C=C[C@H]4C5)n3)cc2C)CC1` [compound 269, (1R,2R,3S,4S)-N4-(3-Aminocarbonylbicyclo[2.2.1]hept-5-en-2-yl)-N2-[3-methyl-4-(4-ethylsulfonylpiperazin-1-yl)phenyl]-5-fluoro-2,4-pyrimidinediamine] has an IC50 (A549 (lung carcinoma); [6]) of no more than 100 nM and an IC50 [1, 7] of no more than 100 nM.
With `CN1CCN(c2ccc(Nc3ncc(F)c(NC4C5C=CC(C5)C4C(N)=O)n3)cc2C(N)=O)CC1` (racemic) [compound 260, Racemic-(2-exo,3-exo)-N2-[3-aminocarbonyl-4-(4-methylpiperazin-1-yl)phenyl]-N4-(3-aminocarbonylbicyclo[2.2.1]hept-5-en-2-yl)-5-fluoro-2,4-pyrimidinediamine] the IC50 (A549 (lung carcinoma); [4]) was 100 to 1000 nM and the IC50 [1, 5] was 100 to 1000 nM.
With `Cc1cc(Nc2ncc(F)c(N[C@@H]3[C@H]4CC[C@H](C4)[C@@H]3C(=O)NC3CC3)n2)ccc1N1CCN(C)CC1` [compound 253, (1S,2R,3S,4R)-N4-(3-N-Cyclopropylaminocarbonylbicyclo[2.2.1]hept-2-yl)-5-fluoro-N2-[3-methyl-4-(4-methylpiperazin-1-yl)phenyl]-2,4-pyrimidinediamine] the IC50 (A549 (lung carcinoma); [4]) was 100 to 1000 nM and the IC50 [1, 5] was 100 to 1000 nM.
`CN1CCC(c2ccc(Nc3ncc(F)c(NC4C5C=CC(C5)C4C(N)=O)n3)cc2)CC1` (racemic) [compound 265, Racemic-(2-exo,3-exo)-N4-(3-aminocarbonylbicyclo[2.2.1]hept-5-en-2-yl)-5-fluoro-N2-[4-(1-methylpiperidin-4-yl)phenyl]-2,4-pyrimidinediamine] gave an IC50 (A549 (lung carcinoma); [4]) of no more than 100 nM and an IC50 [1, 5] of no more than 100 nM.
In the case of `CN(C)CCN1CCc2cc(Nc3ncc(F)c(NC4C5CCC(C5)C4C(=O)NC4CC4)n3)ccc21` (racemic) [compound 178, Racemic-(2-exo,3-exo)-N4-[3-cyclopropylaminocarbonylbicyclo[2.2.1]hept-2-yl)-N2-[1-(2-dimethylaminoethyl)-2,3-dihydro-indol-5-yl]-5-fluoro-2,4-pyrimidinediamine], the IC50 (A549 (lung carcinoma); [2]) is reported as no more than 100 nM and the IC50 [1, 3] is reported as no more than 100 nM.
Work on `Cc1cc(Nc2ncc(F)c(N[C@H]3CCC[C@H]3C(N)=O)n2)ccc1N1CCNCC1` (racemic) [compound 107, Racemic-cis-N4-(2-amino-carbonylcyclopent-1-yl)-5-fluoro-N2-[3-methyl-4-(piperazin-1-yl)phenyl]-2,4-pyrimidinediamine] yielded an IC50 (A549 (lung carcinoma); [2]) of 1000 to 10000 nM and an IC50 [1, 3] of 1000 to 10000 nM.
For `CCS(=O)(=O)N1CCN(c2ccc(Nc3ncc(F)c(NC4C5C=CC(C5)C4C(N)=O)n3)cc2C)CC1` (racemic) [compound 261, Racemic-(2-exo,3-exo)-N4-(3-aminocarbonylbicyclo[2.2.1]hept-5-en-2-yl)-N2-[4-(4-ethylsulfonylpiperazin-1-yl)-3-methylphenyl]-5-fluoro-2,4-pyrimidinediamine], the IC50 (A549 (lung carcinoma); [4]) was no more than 100 nM and the IC50 [1, 5] was no more than 100 nM.
Work on `CS(=O)(=O)N1CCc2cc(Nc3ncc(F)c(NC4C5CCC(C5)C4C(=O)NC4CC4)n3)ccc21` (racemic) [compound 180, Racemic-(2-exo,3-exo)-N4-[3-cyclopropylaminocarbonylbicyclo[2.2.1]hept-2-yl)-5-fluoro-N2-[1-methylsulfonyl-2,3-dihydro-indol-5-yl]-2,4-pyrimidinediamine] yielded an IC50 (A549 (lung carcinoma); [2]) of no more than 100 nM and an IC50 [1, 3] of no more than 100 nM.
With `Cc1cc(Nc2ncc(F)c(NC3(C(=O)NC4CC4)CCCC3)n2)ccc1N1CCN(C)CC1` [compound 247, N4-(1-Cyclopropylaminocarbonylcyclopent-1-yl)-5-fluoro-N2-[3-methyl-4-(4-methylpiperazin-1-yl)phenyl]-2,4-pyrimidinediamine] the IC50 (A549 (lung carcinoma); [4]) was greater than 10000 nM and the IC50 [1, 5] was greater than 10000 nM.
Work on `Cc1cc(Nc2ncc(F)c(NC3C4C=CC(C4)C3C(N)=O)n2)ccc1O` (racemic) [compound 277, Racemic-(2-exo,3-exo)-N4-(3-aminocarbonylbicyclo[2.2.1]hept-5-en-2-yl)-5-fluoro-N2-(4-hydroxy-3-methylphenyl)-2,4-pyrimidinediamine Bis- Hydrochloride Salt] yielded an IC50 (A549 (lung carcinoma); [6]) of no more than 100 nM and an IC50 [1, 7] of no more than 100 nM.
Molecule `Cc1cc(Nc2ncc(F)c(N[C@H]3CC[C@@H](C(=O)O)C3)n2)ccc1N1CCN(C)CC1` [compound 219, (1S,3R)-N4-(3-Carboxycyclopent-1-yl)-fluoro-N2-[3-methyl-4-(4-methylpiparazin-1-yl)phenyl]-2,4-pyrimidinediamine] has an IC50 (A549 (lung carcinoma); [4]) greater than 10000 nM and an IC50 [1, 5] greater than 10000 nM.
